Key:
obese mice = details: cited from earlier work
NO-deficient rats = details: cited from earlier work
[1] = test system: Guinea pig tracheal smooth muscle; assay: Electrical field stimulated guinea pig tracheal smooth muscle contraction (ex vivo); details: sub-maximal EFS, cumulative dose response curve, three animals pooled; read-out: IC50, inhibition of EFS-induced tracheal smooth muscle contraction
Text: On each experimental day, a guinea pig is killed by exposure to a rising concentration of CO2 and the trachea removed. The trachea is cleaned of extraneous tissue and cut open longitudinally in a line opposite the muscle, opened out and cut into strips 2-3 cartilage rings wide. A cotton loop is attached to one end of each tracheal strip and a length of cotton to the other end. Tracheal strips are then suspended between two platinum electrodes, using tissue holders, in a Myobath system (World Precision Instruments Stevenage, UK). […] Tissues are washed with Kreb's buffer and stimulated using the previously determined sub-maximal voltage for 1 hour to establish a stable baseline contraction prior to assessment of compound activity.
A cumulative dose response curve (DRC) to each test substance is then performed and changes in smooth muscle contraction measured. The effect of each test substance in each experiment is expressed as a percentage inhibition of the baseline contraction, normalized to the relevant vehicle controls. […] The data from all three experiments are pooled, the DRC plotted, and the test substance potency and efficacy determined.

## O=C(O)CCCCN(CCc1cc(F)ccc1OCc1ccc(-c2ccc(C(F)(F)F)cc2)cc1)Cc1ccc(C(=O)O)cc1 [BAY 60-2770]
Obese mice
  effect on overactive bladder: ameliorates overactive bladder in obese mice

## Nc1nc(-c2nn(Cc3ccccc3F)c3ncccc23)ncc1C1CC1 [BAY-2272]
NO-deficient rats
  effect on bladder dysfunction: protective effects

## CC(C)[N+]1(C)[C@@H]2CC[C@H]1CC(OC(=O)C(CO)c1ccccc1)C2 (stereo partly drawn) [Ipratropium bromide]
[1]
  IC50: 0.86 nM

From patent US20170298055A1, “sGC STIMULATORS” (IRONWOOD PHARMACEUTICALS, INC., priority 2014, published 2017)
